Results as given in US7910602B2 (Sanofi-Aventis, priority 2005, dated 2011).

Molecular target: T1, GRK2 (βARK-1) (Homo sapiens, UniProt P25098)
T1 sequence (P25098 1-689): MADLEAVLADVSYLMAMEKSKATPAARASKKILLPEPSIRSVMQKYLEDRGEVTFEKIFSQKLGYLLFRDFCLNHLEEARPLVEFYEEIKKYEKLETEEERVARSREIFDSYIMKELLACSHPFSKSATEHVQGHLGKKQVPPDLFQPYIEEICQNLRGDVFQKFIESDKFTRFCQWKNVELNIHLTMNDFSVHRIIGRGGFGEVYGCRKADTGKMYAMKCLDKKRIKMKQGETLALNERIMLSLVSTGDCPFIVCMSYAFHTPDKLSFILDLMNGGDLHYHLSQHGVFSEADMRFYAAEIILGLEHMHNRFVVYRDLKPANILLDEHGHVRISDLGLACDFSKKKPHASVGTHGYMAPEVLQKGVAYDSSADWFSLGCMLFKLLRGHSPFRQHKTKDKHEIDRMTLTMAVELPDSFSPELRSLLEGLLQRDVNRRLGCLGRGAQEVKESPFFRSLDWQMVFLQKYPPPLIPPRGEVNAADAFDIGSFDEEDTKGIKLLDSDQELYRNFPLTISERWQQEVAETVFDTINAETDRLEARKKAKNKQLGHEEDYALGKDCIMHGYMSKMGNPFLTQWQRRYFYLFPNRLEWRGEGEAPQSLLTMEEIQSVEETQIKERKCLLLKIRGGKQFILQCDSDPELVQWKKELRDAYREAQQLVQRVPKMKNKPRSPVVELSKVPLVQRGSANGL
Experiment: GRK2 (βARK-1) kinase assay: 33P phosphorylation of biotinylated bovine tubulin dimers, scintillation counting
Format: biochemical
Details: 100 nM GRK2 pre-incubated with inhibitor 30 min at room temperature; 250 nM tubulin, 3 μM ATP, [γ-33P]-ATP, 30 min reaction
Experimental: The assay determines phosphorylation of biotinylated bovine tubulin dimers (250 nM; TEBU-BIO, # T333) coated to 384 well StreptaWell plates by 100 nM GRK2 which has been pre-incubated with inhibitor cpd. for 30 minutes at room temperature in assay buffer (20 mM Tris-HCl pH 7.4, 2 mM EDTA) containing 2.25% DMSO. The phosphorylation reaction was started by adding tubulin, MgCl2 (10 mM), ATP (3 μM), [γ-^33P]-ATP (0.4 μCi/40 μl) to the preincubated GRK2/compound complex. Then the assay mix was incubated for 30 min at room temperature before the kinase reaction was stopped adding 0.8% BSA, 0.8% Triton X 100, 80 mM EDTA and 400 μM ATP) followed by an 2-24 h incubation at +4° C. Due to the high energy of the […] free ^33P-ATP is removed by a washing step (3× with 100 μl 1×PBS pH 8.0) using a Tecan Power washer 384 to reduce background activity. Bound ^33P is determined by scintillation counting (60 μl scintillator, Ultimagold MV, 30 sec mix) using a Microbeta-counter (delay time 30 min).

Row | Compound | IC50 [nM]
1 | Cn1cc(-c2cc(C(N)=O)nc3[nH]ncc23)c2ccccc21 [Example 4] | 270
2 | Cn1cc(-c2cc(C(N)=O)nc3[nH]ncc23)c2cc(OCC3CCCNC3)ccc21 (stereo not shown) [Example 3, 4-(1-methyl-5-(piperidin-3-ylmethoxy)-1H-indol-3-yl)-1H-pyrazolo(3,4-b)pyridine-6-carboxylic acid amide] | 700
3 | NC(=O)c1cc(-c2cccc(O)c2)c2cn[nH]c2n1 [Example 16] | 2100
4 | Cn1cc(-c2cc(C(N)=O)nc3[nH]ncc23)c2cc(OCC(N)=O)ccc21 [Example 8, 4-(5-Carbamoylmethoxy-1-methyl-1H-indol-3-yl)-1H-pyrazolo[3,4-b]pyridine-6-carboxylic acid amide] | 20
